Measurements: patent US12617762B2, “Carboxy derivatives with antiinflamatory properties” (Sitryx Therapeutics Limited, priority 2019, dated 2026)
pEC50, pIC50: −log10 of the molar value. Structures can show the parent of a compound that is named as a salt. Where two headings read alike, the source gives them in different places. Values belong to the compound of their own block, whether it stands above or below them.

Legend:
[1] = system: IL-1β cytokine output from THP-1s; test: THP-1 AlphaLISA IL-1β cytokine inhibition assay; type: cell-based; details: Homo sapiens
In short: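 IL-1β release by AlphaLISA, expressed as % inhibition against +/− LPS controls on each plate. Differentiation: PMA, 72 h. Sequence: 30 min compound pre-treatment, LPS 24 h, Nigericin 1 h before supernatant harvest, all at 37° C./5% CO2.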

[2] = system: IL-6 cytokine output from THP-1s; test: THP-1 AlphaLISA IL-6 cytokine inhibition assay; type: cell-based; details: Homo sapiens, LPS then nigericin
Procedure: The cytokine inhibition profiles of compounds of formula (I) were determined in a differentiated THP-1 cell assay. All assays were performed in RPMI-1640 growth medium (Gibco), supplemented with 10% fetal bovine serum (FBS; Gibco), 1% penicillin-streptomycin and 1% sodium pyruvate unless specified otherwise. The IL-1β cytokine inhibition assay was run in a background of differentiated THP-1 cells as described below. All reagents described were from Sigma-Aldrich unless specified otherwise. Compounds were prepared as 10 mM DMSO stocks.
THP-1 cells were expanded as a suspension up to 80% confluence in appropriate growth medium. Cells were harvested, suspended, and treated with an appropriate concentration of phorbol 12-myristate 13-acetate (PMA) over a 72 hr period (37° C./5% CO2).
Following 72 hrs of THP-1 cell incubation, cellular medium was removed and replaced with fresh growth media containing 1% of FBS. Working concentrations of compounds were prepared separately in 10% FBS treated growth medium and pre-incubated with the cells for 30 minutes (37° C./5% CO2). Following the 30 minute compound pre-incubation, THP-1s were treated with an appropriate concentration of LPS and the cells were subsequently incubated for a 24 hr period (37° C./5% CO2). An appropriate final concentration of Nigericin was then dispensed into the THP-1 plates and incubated for 1 hour (37° C./5% CO2) before THP-1 supernatants were harvested and collected in separate polypropylene 96-well holding plates.
Reagents from an IL-1β and IL-6 commercial kit (Perkin Elmer) were prepared and run according to the manufacturer's instructions. Subsequently, fluorescence signal detection in a microplate reader was measured (EnVision® Multilabel Reader, Perkin Elmer).
Percentage inhibition was calculated per cytokine by normalising the sample data to the high and low controls used within each plate (+/− LPS respectively).

[3] = Hepatocyte stability assay, mouse; type: in vitro ADME; details: mouse, hepatocytes; for hepatocyte CLint at 10 μM: Hepatocyte stability Clint; for half-life at 10 μM: Hepatocyte stability T½
In short: (§1)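 Thawed cryopreserved hepatocytes (viability >70%) at 0.5×10^6 cells/mL in Leibovitz buffer were preincubated at 37° C, then given 10 μM compound (0.1% DMSO) in duplicate. Samples at 0–60 min were quenched in acetonitrile and analysed by LC-MS/MS. Intrinsic clearance and half-life were derived from ln % remaining versus time.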

[4] = Hepatocyte stability assay, human; type: in vitro ADME; details: human, hepatocytes; for hepatocyte CLint at 10 μM: Hepatocyte stability Clint; for half-life at 10 μM: Hepatocyte stability T½
In short: as §1

[5] = system: NRF2 (nuclear factor erythroid 2-related factor 2); test: NRF2 +/-GSH activation assay (DiscoverX PathHunter NRF2 translocation kit, U2OS cells); type: cell-based; details: for NRF2 activation +GSH Emax / NRF2 activation −GSH Emax / −GSH Emax: normalised to DMF high control
In short: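 Activation is expressed as percent of plate DMF (high) versus no-DMF (low) controls, from luminescence after 6 h compound exposure at 37 °C of U2OS PathHunter cells. The +GSH condition used compound pre-incubated 30 min in 6 mM working GSH; −GSH cells received compound directly.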

[6] = THP-1, differentiated THP-1 cells, LPS then nigericin
[7] = THP-1, differentiated THP-1 cells
[8] = −GSH, U2OS PathHunter cells, 6 hours compound treatment, read-out: NRF2 activation −GSH EC50
[9] = +GSH, 30 minute compound-GSH pre-incubation, read-out: NRF2 activation +GSH EC50
[10] = THP-1, Table 3, head to head comparison of exo vs endo double bond compounds
[11] = −GSH, Table 5 exo vs endo comparison, read-out: −GSH EC50
[12] = −GSH, Table 5 exo vs endo comparison

Compound: C=C(Cc1nc(C2(c3cc(Cl)cc(Cl)c3)CC2)no1)C(=O)O [Example 67, 2-((3-(1-(3,5-dichlorophenyl)cyclopropyl)-1,2,4-oxadiazol-5-yl)methyl)acrylic acid]
pIC50 [1, 6]: 4.16
pIC50 [2, 7]: 5.39
hepatocyte CLint at 10 μM [3]: 92 µL/min/1e6 cells
half-life at 10 μM [3]: 13 min
hepatocyte CLint at 10 μM [4]: 70 µL/min/1e6 cells
half-life at 10 μM [4]: 23 min

Compound: C=C(Cc1nc(Cc2ccc(OC(F)(F)C(F)F)cc2)no1)C(=O)O [Example 81, 2-((3-(4-(1,1,2,2-tetrafluoroethoxy)benzyl)-1,2,4-oxadiazol-5-yl)methyl)acrylic acid]
pIC50 [1, 6]: 4.66
pIC50 [2, 7]: 4.89
hepatocyte CLint at 10 μM [3]: 94 µL/min/1e6 cells
half-life at 10 μM [3]: 18 min
hepatocyte CLint at 10 μM [4]: < 3 µL/min/1e6 cells
half-life at 10 μM [4]: > 460 min

Compound: C=C(Cc1nc(C2(c3ccc(OC(F)(F)C(F)F)cc3)CC2)no1)C(=O)O [Example 82, 2-((3-(1-(4-(1,1,2,2-tetrafluoroethoxy)phenyl)cyclopropyl)-1,2,4-oxadiazol-5-yl)methyl)acrylic acid]
pIC50 [1, 6]: 4.84
pIC50 [2, 7]: 4.68
hepatocyte CLint at 10 μM [3]: 30 µL/min/1e6 cells
half-life at 10 μM [3]: 58 min
hepatocyte CLint at 10 μM [4]: < 3 µL/min/1e6 cells
half-life at 10 μM [4]: > 460 min

Compound: C=C(Cc1noc(C(F)(F)c2ccc(Cl)cc2)n1)C(=O)O [Example 84, 2-((5-((4-chlorophenyl)difluoromethyl)-1,2,4-oxadiazol-3-yl)methyl)acrylic acid]
pIC50 [1, 6]: 4.41
pIC50 ([2]; differentiated THP-1 cells): 4.64
hepatocyte CLint at 10 μM [3]: 83 µL/min/1e6 cells
half-life at 10 μM [3]: 21 min
hepatocyte CLint at 10 μM [4]: 14 µL/min/1e6 cells
half-life at 10 μM [4]: 115 min

Compound: C=C(Cc1nc(C(F)(F)c2ccc(C(F)(F)F)cc2)no1)C(=O)O [Example 92, 2-((3-(difluoro(4-(trifluoromethyl)phenyl)methyl)-1,2,4-oxadiazol-5-yl)methyl)acrylic acid]
pIC50 [1, 6]: 5.17
pIC50 [2, 7]: 4.70
hepatocyte CLint at 10 μM [3]: 23 µL/min/1e6 cells
half-life at 10 μM [3]: 84 min
hepatocyte CLint at 10 μM [4]: < 3 µL/min/1e6 cells
half-life at 10 μM [4]: > 460 min

Compound: C=C(Cc1nc(CCCCCCCC)c(C)o1)C(=O)O [Example 107, 2-((5-methyl-4-octyloxazol-2-yl)methyl)acrylic acid]
pIC50 [1, 6]: 5.02
pIC50 ([2]; differentiated THP-1 cells): 5.08
hepatocyte CLint at 10 μM [3]: > 460 µL/min/1e6 cells
half-life at 10 μM [3]: < 3 min
hepatocyte CLint at 10 μM [4]: 161 µL/min/1e6 cells
half-life at 10 μM [4]: 8 min

Compound: C=C(Cc1nc(-c2ccc(Cl)cc2)c(CCCC)o1)C(=O)O [Example 109, 2-((5-butyl-4-(4-chlorophenyl)oxazol-2-yl)methyl)acrylic acid]
pIC50 [1, 6]: < 4.50
pIC50 [2, 7]: 4.97
hepatocyte CLint at 10 μM [3]: 61 µL/min/1e6 cells
half-life at 10 μM [3]: 28 min
hepatocyte CLint at 10 μM [4]: 20 µL/min/1e6 cells
half-life at 10 μM [4]: 79 min

Compound: C=C(Cc1nc(-c2cc(F)c(OCCCC)c(F)c2)no1)C(=O)O [Example 162, 2-((3-(4-butoxy-3,5-difluorophenyl)-1,2,4-oxadiazol-5-yl)methyl)acrylic acid]
pIC50 [1, 6]: < 4.33
pIC50 ([2]; differentiated THP-1 cells): 5.19
pEC50 [5, 9]: 5.89
NRF2 activation +GSH Emax ([5]; +GSH): 269%
pEC50 [5, 8]: 5.96
NRF2 activation −GSH Emax ([5]; −GSH): 232%

Compound: C=C(Cc1cccc(Cc2ccc(Cl)cc2)n1)C(=O)O [Example 171, 2-((6-(4-chlorobenzyl)pyridin-2-yl)methyl)acrylic acid trifluoroacetic acid salt]
pIC50 [1, 6]: < 4.00
pIC50 [2, 7]: < 4.00
pEC50 [5, 9]: < 4.00
NRF2 activation +GSH Emax ([5]; +GSH): 0%
pEC50 [5, 8]: < 4.00
NRF2 activation −GSH Emax ([5]; −GSH): 5%

Compound: C=C(Cc1cccc(C2(c3ccc(Cl)cc3)CC2)n1)C(=O)O [Example 175, 2-((6-(1-(4-chlorophenyl)cyclopropyl)pyridin-2-yl)methyl)acrylic acid]
pIC50 [1, 6]: 4.21
pIC50 ([2]; differentiated THP-1 cells): 4.39
pEC50 [5, 9]: < 4.00
NRF2 activation +GSH Emax ([5]; +GSH): 4.0%
pEC50 [5, 8]: < 4.26
NRF2 activation −GSH Emax ([5]; −GSH): 43%

Compound: C=C(Cc1nc(C2(c3cc(Cl)c(Br)c(Cl)c3)CC2)no1)C(=O)O [Example 176, 2-((3-(1-(4-bromo-3,5-dichlorophenyl)cyclopropyl)-1,2,4-oxadiazol-5-yl)methyl)acrylic acid]
pIC50 [1, 6]: 5.49
pIC50 ([2]; differentiated THP-1 cells): 5.12
pEC50 [5, 8]: 5.27
NRF2 activation −GSH Emax ([5]; −GSH): 222%

Now from value to compound, other results behind:

pIC50 [1, 6]: 5.28
pIC50 ([2]; differentiated THP-1 cells): 4.25
pEC50 [5, 8]: < 4.00
Compound: C=C(C(=O)O)C1(c2nc(C3(c4ccc(C(F)(F)F)cc4)CC3)no2)CC1 [Example 156, 2-(1-(3-(1-(4-(trifluoromethyl)phenyl)cyclopropyl)-1,2,4-oxadiazol-5-yl)cyclopropyl)acrylic acid]
NRF2 activation +GSH Emax ([5]; +GSH): −16.4%
NRF2 activation −GSH Emax ([5]; −GSH): 0%

pIC50 [1, 10]: < 4.50
pIC50 [1, 6]: < 4.50
pIC50 ([2]; differentiated THP-1 cells): 4.69
pEC50 [5, 9]: < 4.00
pEC50 [5, 11]: < 4.00
pEC50 [5, 8]: < 4.00
Compound: C/C(=C\c1nc(C2(c3ccc(S(F)(F)(F)(F)F)cc3)CC2)no1)C(=O)O [Example 169]
NRF2 activation +GSH Emax ([5]; +GSH): 15.4%
NRF2 activation −GSH Emax ([5]; −GSH): 43%
−GSH Emax [5, 12]: 43%

pIC50 [1, 10]: < 4.50
pIC50 [1, 6]: < 4.50
pIC50 ([2]; differentiated THP-1 cells): 4.68
pEC50 [5, 9]: 4.46
pEC50 [5, 11]: 4.41
pEC50 [5, 8]: 4.41
Compound: C/C(=C\c1nc(C2(c3ccc(SC(F)(F)F)cc3)CC2)no1)C(=O)O [Example 170]
NRF2 activation +GSH Emax ([5]; +GSH): 96.5%
NRF2 activation −GSH Emax ([5]; −GSH): 177%
−GSH Emax [5, 12]: 177%

pIC50 [1, 6]: 5.29
pIC50 ([2]; differentiated THP-1 cells): 4.17
pEC50 [5, 9]: < 4.00
pEC50 [5, 8]: < 4.00
Compound: C=C(C(=O)O)C(C)(C)c1nc(C2(c3ccc(C(F)(F)F)cc3)CC2)no1 [Example 172]
NRF2 activation +GSH Emax ([5]; +GSH): 7.6%
NRF2 activation −GSH Emax ([5]; −GSH): 0%

pIC50 [1, 6]: 5.12
pIC50 ([2]; differentiated THP-1 cells): < 4.00
pEC50 [5, 9]: 4.21
pEC50 [5, 8]: 4.28
Compound: C=C(C(=O)O)C1(c2nc(C(F)(F)c3ccc(C(F)(F)F)cc3)no2)CC1 [Example 173, 2-(1-(3-(difluoro(4-(trifluoromethyl)phenyl)methyl)-1,2,4-oxadiazol-5-yl)cyclopropyl)acrylic acid]
NRF2 activation +GSH Emax ([5]; +GSH): 2.1%
NRF2 activation −GSH Emax ([5]; −GSH): 64%

pIC50 [1, 6]: 5.38
pIC50 ([2]; differentiated THP-1 cells): < 4.00
pEC50 [5, 9]: < 4.00
pEC50 [5, 8]: < 4.00
Compound: C=C(C(=O)O)C(C)c1nc(C2(c3ccc(C(F)(F)F)cc3)CC2)no1 (stereo not drawn) [Example 174, 2-methylene-3-(3-(1-(4-(trifluoromethyl)phenyl)cyclopropyl)-1,2,4-oxadiazol-5-yl)butanoic acid]
NRF2 activation +GSH Emax ([5]; +GSH): 1.8%
NRF2 activation −GSH Emax ([5]; −GSH): 24%
